Values quoted from earlier work as cited in patent US20250352557A1, “COMPOSITIONS FOR PERITONEAL DRUG DELIVERY AND METHODS OF USE THEREOF” (Viramal Limited, priority 2023, published 2025).

Experiments:
[1] = vaginal administration; previously refractory patients
[2] = not given; remark: listed apart in the source

C#C[C@]1(O)CC[C@H]2[C@@H]3CCC4=Cc5oncc5C[C@]4(C)[C@H]3CC[C@@]21C [Danazol, 17α-Pregna-2,4-dien-20-yno [2,3-d]-isoxazol-17-ol]
Bioavailability with intake of foods high in fat (oral): tripled
Time at which peak-plasma concentrations are reached (oral (Danatrol form)): 2 to 3 h
Peak-plasma concentrations (oral (Danatrol form), absorbed from the gastrointestinal tract): 50 to 80 ng/mL
Average consumption of pain relief tablets (e.g., naproxen) reduced by [1]: 60%
Patient satisfaction [1]: 80%

CC(=O)[C@H]1CC[C@H]2[C@@H]3CCC4=CC(=O)CC[C@]4(C)[C@H]3CC[C@]12C [progesterone]
Log P [2]: 3.82
